From PMC6747129 (International Journal of Molecular Sciences, 2019)

Assays:
[1] = target: T1, CYP3A4 (Homo sapiens, UniProt P08684); test: in vitro; conditions: pH 7.4
[2] = tested on: microsomal and recombinant CYP3A4; conditions: reversible and mechanism-based inhibition of CYP3A4; cited from earlier work
[3] = target: T1, CYP3A4; test: biochemical
[4] = target: T1, CYP3A4

T1 sequence (P08684 whole entry): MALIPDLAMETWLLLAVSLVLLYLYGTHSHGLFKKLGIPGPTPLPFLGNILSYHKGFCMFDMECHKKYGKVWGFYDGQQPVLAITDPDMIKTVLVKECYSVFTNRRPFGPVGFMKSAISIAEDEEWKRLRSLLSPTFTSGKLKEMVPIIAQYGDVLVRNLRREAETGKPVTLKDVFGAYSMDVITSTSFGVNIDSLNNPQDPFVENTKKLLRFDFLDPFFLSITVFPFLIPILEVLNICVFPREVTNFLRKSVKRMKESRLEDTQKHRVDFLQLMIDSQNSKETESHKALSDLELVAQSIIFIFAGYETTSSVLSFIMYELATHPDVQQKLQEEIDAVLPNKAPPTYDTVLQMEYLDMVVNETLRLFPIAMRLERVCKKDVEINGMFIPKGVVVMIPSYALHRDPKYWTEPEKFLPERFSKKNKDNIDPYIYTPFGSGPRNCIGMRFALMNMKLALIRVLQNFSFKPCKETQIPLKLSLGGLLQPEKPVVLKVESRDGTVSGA

Row | Kd [1] [µM] | Kd [3] [µM] | share of the total absorbance decrease (Soret band) due to occupation of the high affinity site ([4]; DHB titration, two-site fit) | n, Hill coefficient ([4]; sigmoidal fit of titration curve, ligand-free CYP3A4) | SMILES | IC50 [2] [µM]
1 | 10.3 ± 1.4 | 0.22 ± 0.03 | ~ 17% | – | C/C(=C\COc1c2ccoc2cc2oc(=O)ccc12)CCC(O)C(C)(C)O (stereo not shown) [DHB, 6′,7′-dihydroxybergamottin] | 2 to 23
2 | – | 3 ± 0.3 | – | 1.8 | CC(C)=CCC/C(C)=C/COc1c2ccoc2cc2oc(=O)ccc12 [bergamottin] | 2 to 23
